Non-standard residues stand in square brackets, D forms with d. No end group written: not given here.

One assay addresses VIP-receptor complex. To be noted: n=6; K-A is the dissociation constant of VIP-receptor complex; cited from earlier work.
Assay [1] relates to endothelial cells ECV.304. Nature of the assay: Migration assay across 8 μm polycarbonate filter transwell inserts. Format: cell-based. The following applies: N = 10^−8 M for VIP2, BOM1, SP1, VIP3, SOM2, 10^−7M for VIP1, 10^−9M for SOM1, 24 hours. As to the method:
Polycarbonate filter transwell inserts (24 well size) with 8 μm pores (Nunc, Denmark) were used for the migration assay. ECV304 (10^4 cells/200 ul DMEM containing 0.1% BSA) was added to the upper chamber. The lower chamber contained 600 ul of DMEM with 0.1% BSA. Individual peptides of the composition MuJ-7 at six different concentrations each of N/100, N/10, N, 10N, 100N and 1000N were added directly to the upper well and the plate incubated at 37° C. for 24 hours. The cells migrated to the lower chamber were viewed randomly at five different phase-contrast microscopic fields and the total number of cells counted using Video Pro 32 Image Analysis system. Percent inhibition in migration was determined with reference to the Control. Similarly, […] different concentrations of N/100, N/10, N, 10N, 100N and 1000N of MuJ-7 were added directly to the upper well and the plate incubated at 37° C. for 24 hours. The cells migrated to the lower chamber were counted as described above.
Polycarbonate filter trasnwell inserts (24 well size) with 8 μm pores (Nuno, Denmark) were used for the migration assay. ECV304 (10^4 cells/200 ul DMEM containing 0.1% BSA) was added to the upper chamber. The lower chamber contained 600 ul of DMEM with 0.1% BSA. […] The sequence of each of the peptides added are described above. The cells migrated to the lower chamber were viewed randomly at five different phase-contrast microscopic fields and the total number of cells counted using Video Pro 32 Image Analysis system. Percent inhibition in migration was determined with reference to Control. […]

Another assay deals with EaHy.926. Description: MTT assay, inhibition of proliferation of endothelial cells EaHy.926. It is filed as cell-based. To be noted: 72 hours. As to the method: (§1) 150 μl of medium was added to the wells of a 96-well tissue culture plate (Nunc, Denmark) followed by 30 μl of cell suspension. The plate was left in incubator (37° C., 5% CO2) overnight. Each of the seven peptides of the combination MuJ-7 were added at three molar concentrations of 10^−7M, 10^−8M and 10^−9M. 20 μl of MuJ-7 at three concentrations of N/10, N and 10N was added to marked wells of the 96-well plate. The value of N for each of the individual peptides was 10^−8M for VIP2, BOM1, SP1, VIP3, and SOM2 and 10^−7M for VIP1, and 10^−9M for SOM1. Each concentration was plated in triplicate. 20 μl of medium alone was added to control wells while wells without cells served as blanks. A total volume of 200 μl was ensured in each well and the plate was left in an incubator (37° C., 5% CO2). After 72 hours of incubation an MTT assay was performed and percentage inhibition in proliferation of treated cells was calculated with respect to control cells.
(Tetrazolium dyes change colour on reduction, which living cells bring about.)

The subject of another assay is ECV.304 cells. Description: MTT assay, inhibition of proliferation of endothelial cells ECV.304. Format: cell-based. To be noted: 72 hours (Table 1). As for the experimental part:
as §1
150 μl of medium was added to the wells of a 96-well tissue culture plate (Nunc, Denmark) followed by 30 μl of cell suspension. The plate was left in incubator (37° C., 5% CO2) overnight. Novel peptides shown below were incubated with cells at concentration range of 10^−7 to 10^−9 M (except DT71 at concentration range 10^−8 to 10^−10 M). Each concentration was plated in triplicates. 20 μl of medium alone was added to control wells while wells without cells served as blanks. A total volume of 200 μl was ensured in each well and plate was left in incubator (37° C., 5% CO2). After 72 hours of incubation an MTT assay was performed and percentage inhibition in proliferation of treated cells was calculated with respect to control cells.

The test system of the next assay is ECV304. Nature of the assay: Tube-like-structure (TLS) formation on Matrigel. Format: cell-based. To be noted: N = 10^−8 M for VIP2, BOM1, SP1, VIP3, SOM2, 10^−7M for VIP1, 10^−9M for SOM1, 24 hours. As for the experimental part:
Matrigel (350 ul) was placed into each well of a 24-well culture plate at 4° C. and was allowed to polymerize by incubation at 37° C. for 30 min. ECV304 (1.5×10^4) were seeded on the Matrigel in 500 ul DMEM supplemented with 10% FBS. MuJ-7 at four different concentrations of 0.25×, 0.5×, ×, & 5.0× were added and. the plate incubated at 37° C. for 24 hour. “×” denotes normal concentration of MuJ-7 where molar concentration of individual peptides was 10^−8 M for VIP2, BOM1, SP1, VIP3 and SOM2 and 10^−7 M for VIP1 and 10^−9 M for SOM1. […] Percent inhibition in tube area was determined with reference to untreated cells.
Matrigel (350 ul) was placed into each well of a 24-well culture plate at 4° C. and was allowed to polymerize by incubation at 37° C. for 30 min. ECV304 (1.5×10^4) were seeded on the Matrigel in 500 ul DMEM supplemented with 10% FBS. […] Percent inhibition in tube length was determined with reference to untreated cells.
Matrigel (350 ul) was placed into each well of a 24-well culture plate at 4° C. and was allowed to polymerize by incubation at 37° C. for 30 min. ECV304 (1.5×10^4) were seeded on the Matrigel in 500 ul DMEM supplemented with 10% FBS. Individual peptides of the composition MuJ-7 at three different concentrations each of N/10, N, and 10N were added and the plate incubated at 37° C. for 24 hours. […] Percent inhibition in tube length was determined with reference to Control. Similarly, three different concentrations of N/10, N, and 10N of MuJ-7 were added to the well and the plate incubated at 37° C. for 24 hours. Percent inhibition in tube length was determined with reference to Control as described previously (Table 10).

Another assay concerns aortic rings in fibrin. To be noted: 10^−8M octreotide; cited from earlier work.
The subject of assay [2] is vascular cells from explants of rat aorta. To be noted: 10^−8M octreotide; cited from earlier work.
In assay [3] the test system is human umbelical vein endothelial cells (HUVEC). To be noted: 10^−9M octreotide; cited from earlier work.

In the case of vasoactive intestinal polypeptide [VIP], the “pKa value for VIP-receptor complex” value on VIP-receptor complex is given as 8.10+/−0.10.

With [dR]PKP[dF]Q[dW]F[dW]LL-NH2 [SP1], the “Percent inhibition in migration” value in assay [1] (10N) is 92.65%; in assay [1] (100N), 78.10%; in assay [1] (1000N), 18.10%; in assay [1] (N/10), 94.10%; in assay [1] (N/100), 13.97%; in assay [1] (N) it was 90.50%. Also, the “Percent Inhibition Proliferation” value with EaHy.926 (EaHy.926, peptide 10^−7M) amounted to 49%; in the assay with EaHy.926 (EaHy.926, peptide 10^−8M), 32%; in the assay on EaHy.926 (EaHy.926, peptide 10^−9M), 37%; with ECV.304 cells (ECV.304, peptide 10^−7M), 18%; in the assay with ECV.304 cells (ECV.304, peptide 10^−8M), 24%; in the assay with ECV.304 cells (ECV.304, peptide 10^−9M), 22%. Moreover, the figures for the “Percent inhibition in TLS activity (TLS length)” value in the assay on ECV304 (10N), with ECV304 (N/10) and in the assay with ECV304 (N) were 3.0%, 14.4% and 8.9%, respectively.

Take LMYPTYLK [VIP2]: the “Percent inhibition in migration” value in assay [1] (10N) is 88.15%; in assay [1] (100N), 92.90%; in assay [1] (1000N), 0.00%; in assay [1] (N/10), 91.75%; in assay [1] (N/100) it was 0.00%; in assay [1] (N) it was 89.05%. Further, the “Percent Inhibition Proliferation” value in the assay with EaHy.926 (EaHy.926, peptide 10^−7M) is recorded as 32%; with EaHy.926 (EaHy.926, peptide 10^−8M), 28%; in the assay on EaHy.926 (EaHy.926, peptide 10^−9M), 42%; with ECV.304 cells (ECV.304, peptide 10^−7M), 24%; with ECV.304 cells (ECV.304, peptide 10^−8M) it was 25%; in the assay on ECV.304 cells (ECV.304, peptide 10^−9M), 22%. Further, the figures for the “Percent inhibition in TLS activity (TLS length)” value in the assay on ECV304 (10N), in the assay with ECV304 (N/10) and with ECV304 (N) were 3.3%, 0.0% and 1.0%, respectively.

For “D-Phe-Cys-Tyr-D-Trp-Om-Thr-Pen-Thr-NH2 [SOM1]”, the “Percent inhibition in migration” value in assay [1] (10N) stood at 88.75%; in assay [1] (100N), 73.73%; in assay [1] (1000N), 25.00%; in assay [1] (N/10), 78.50%; in assay [1] (N/100) it was 84.27%; in assay [1] (N), 88.11%. For the same compound, the “Percent Inhibition Proliferation” value in the assay with EaHy.926 (EaHy.926, peptide 10^−7M) was found to be 36%; in the assay on EaHy.926 (EaHy.926, peptide 10^−8M), 36%; in the assay on EaHy.926 (EaHy.926, peptide 10^−9M), 22%; in the assay with ECV.304 cells (ECV.304, peptide 10^−7M), 20%; in the assay on ECV.304 cells (ECV.304, peptide 10^−8M), 20%; in the assay with ECV.304 cells (ECV.304, peptide 10^−9M) it was 19%.

On to `C[C@@H](O)[C@@H]1NC(=O)[C@H](CCCCN)NC(=O)[C@@H](Cc2c[nH]c3ccccc23)NC(=O)[C@H](Cc2ccccc2)NC(=O)[C@@H](NC(=O)[C@H](N)Cc2ccccc2)CSSC[C@@H](C(=O)N[C@H](CO)[C@@H](C)O)NC1=O` [octreotide], for which the “reduction of sprouting compared with controls” value with aortic rings in fibrin was 33.2%. Moreover, the “inhibition of proliferation compared with controls” value in assay [2] was 32.6%. Also, the “reduction of mean uptake of 3H-thymidine compared with controls” value in assay [3] is on record as 37%.

The record behind these values is patent US6492330B1, “Antiangiogenic drugs” (National Institute of Immunology, priority 1996, dated 2002).
